The source of these data is patent US9708292B2, “Cyanopyrimidine derivative” (OTSUKA PHARMACEUTICAL CO., LTD., priority 2009, dated 2017).

In data set [1] the target is T1, adenosine A2a receptor (Human) (Homo sapiens, UniProt P29274).
T1 construct: host or cells: HEK293
Put plainly: c-AMP generating action in cell expressing adenosine A2a receptor. It counts as cell-based. The procedure: Test 1: c-AMP Generating Action in Cell Expressing Adenosine A2a Receptor
The test was carried out as mentioned below with reference to the method disclosed in the reference (Klotz k. N. et al., Naunyn-Schmiedeberg's Arch. Pharmacol., (1998) 357, 1-9; Shryock J. C. et al., Molecular Pharmacology, (1998) 53, 886-893).
As to the cell to be used in the test, HEK293 cell expressing adenosine A2a receptor (Human) (PerkinElmer Life Sciences, Code No. RBHA2AC) was used.
As to the culture medium, Dulbecco's modified Eagles medium (DMEM) including 10% FBS (Fetal bovine serum) and 1 mM of sodium pyruvate was used.
The cell was placed on 96 well plate (1×10^5/well), and cultured overnight. After removing off the supernatant, 0.1 ml of DMEM (without FBS) containing 20 mM HEPES, 0.1 mM IBMX (3-isobutyl-1-methylxanthine) and 2 unit/mL adenosine deaminase were added to each well, and they were incubated at 37° C. for 30 minutes. Then, 0.1 ml of the culture medium containing the DMSO solution of the test compound in the predetermined concentration was added to each well, and they were incubated for additional 30 minutes. After removing off the supernatant, the cytolytic solution was added thereto to quench the reaction. The amount of c-AMP in each well was measured by using the c-AMP enzyme immunoassay (EIA) system (Amersham Biosciences, Code No. RPN225).
The same assay was repeated using CGS-21680 (2-p-carboxyethyl)phenethylamino-5′-N-ethylcarboxamidoadenosine hydrochloride, (Sigma, code C141) as a reference compound.
The amount of resultant c-AMP in the reference medium, caused by 1 μM of the reference compound, was defined to be 100%. The amount of resultant c-AMP in each test medium was measured, and the concentration producing 50% c-AMP amount was calculated based on the results of each test compound in the predetermined concentration, which is defined as EC50 value.

Data set [2] has as its system Rabbit corneal epithelium cell. Put plainly: Effect on corneal epithelium cell after UVA irradiation (neutral red uptake assay). Particulars: 60 min incubation, UVA 3.5 mW/cm^2 for 70 min, viability after 24 hours. It counts as cell-based. The procedure: Test 2: Effect of the Compound of Example 1 to Corneal Epithelium Cell [Method]
Rabbit corneal epithelium cell (KURABO) was used as the cell for the test. To the rabbit corneal epithelium cell placed on 96 well plate was added the compound of Example 1, and the sample was incubated for 60 minutes. Then, the sample was irradiated with UVA (3.5 mW/cm^2) for 70 minutes using a solar simulator (SOL500). After that, the cell was washed with a buffer. After 24 hours, the cell viability was evaluated by the neutral red uptake assay.

The test system of the next data set is ciliary artery. Kind of data set: Vascular relaxation of isolated ciliary artery contracted with High K+-krebs solution. More on the design: species or system Rabbits. The procedure: Rabbits were sacrificed with an overdose of sodium pentobarbital by intravenous administration. The eyes were enucleated and ciliary arteries were isolated. Vascular rings were cut 2 mm in length from ciliary arteries and set to Danish Multi Myograph System 610M (Danish myo technology) under microscopic observation. The vessels were equilibrated in oxygenated krebs solution with 5% CO2 and 95% O2 at 37° C.
To confirm the endothelium damage of vessels, the relaxation of ciliary artery by 100 μM carbachol was tested. If relaxation by carbachol was more than 30%, the vessels whose endothelium had no damage were used for the experiments.
After ciliary artery was contracted with High K^+-krebs solution, the compound of Example 1 was serially administrated to chamber from 0.3 μM to 300 μM. The tension was measured by Myodaq ver 2.01 (Danish myo technology).

The test system of data set [3] is retinal ganglion cell (RGC). Put plainly: Neuroprotection: cell survival of purified retinal ganglion cells. It counts as cell-based, Long Evans rat. To be noted: five days of culture, control = 0%, BDNF (50 ng/mL) = 100%, Mean ± SE. The procedure: This experiment was performed according to a method reported by Otori et al. (Invest Opthalmol Vis Sci. 39: 972-981, 1998).
Eyes were enucleated from 7 day old Long Evans rat. Retinas were isolated from the eyes. The retinas were dissociated by incubating with Neurobasal medium including 15 U/mL papain at 37° C. for 30 minutes. The retinal suspension was prepared.
The retinal suspension was incubated in anti-SIRP antibody (Chemicon)-coated flask at room temperature for 30 minutes. The non adherent cells were placed in anti-thy-1 antibody (Chemicon)-coated flask. The cells were incubated at room temperature for 30 minutes. Finally the adherent cells in flask were washed with Neurobasal medium. After centrifugation at 800 rpm for 5 minutes, the purified RGC was prepared. The cells were seeded on glass coverslips that had been coated with poly-L-lysine and laminin. The purified RGC were cultured in Neurobasal medium containing B27 supplement, 1 mM glutamine 50 ng/mL CNTF, 10 μM Forskolin. Culture was maintained at 37° C. in humidified atmosphere containing 5% CO2 and 95%, air. BDNF (50 ng/mL) or the compound of Example 1 at final concentration of 0 nM (control), 3 nM, 10 nM or 30 nM was administered immediately after cell seeding.
Cell survival (cell viability) was determined by counting stained RGC. Five days after culture started, RGC were stained with 1 μM Calcein-AM (Molecular probe). The number of RGC was counted using fluorescence microscope. The percentage of cell survival (cell viability) was calculated by using the counts of control group as 0%, and the counts of BDNF group as 100%.
The cell survival was calculated by using the counts of control groups as 0% and the counts of BDNF groups as 100%.

The mark [4] stands for this setting: HEK293 cell expressing human adenosine A2a receptor, c-AMP by 1 μM CGS-21680 defined as 100%, read-out: A2a agonistic activity (EC50).

pEC50: −log10 of the molar value. Structures can show the parent of a compound that is named as a salt. Where two headings read alike, the source gives them in different places.

T1 sequence (P29274 whole entry): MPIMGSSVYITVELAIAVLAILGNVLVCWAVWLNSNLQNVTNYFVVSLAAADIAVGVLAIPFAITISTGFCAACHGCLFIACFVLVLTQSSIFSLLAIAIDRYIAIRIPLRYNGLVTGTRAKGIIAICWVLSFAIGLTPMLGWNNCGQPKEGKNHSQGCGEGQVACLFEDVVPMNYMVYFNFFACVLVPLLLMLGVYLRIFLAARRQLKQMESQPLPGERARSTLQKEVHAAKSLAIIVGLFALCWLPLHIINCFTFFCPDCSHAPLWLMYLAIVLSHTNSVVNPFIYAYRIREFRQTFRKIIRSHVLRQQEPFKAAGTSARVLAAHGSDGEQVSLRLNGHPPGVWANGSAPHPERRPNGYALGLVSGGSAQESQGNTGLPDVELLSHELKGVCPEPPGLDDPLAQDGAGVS

One may read the pEC50 as −log10 of the EC50, conventionally taken in molar units. Take `CC(=O)Nc1ccc(-c2nc(SCc3cccc(CCC(=O)N4CCN(CC5CCN(CCO)CC5)CC4)n3)nc(N)c2C#N)cc1` [Example 2, N-(4-(6-amino-5-cyano-2-((6-(3-(4-((1-(2-hydroxyethyl)-piperidin-4-yl)methyl)piperazin-1-yl)-3-oxopropyl)pyridin-2-yl)methylthio)pyrimidin-4-yl)phenyl)acetamide maleate]: the negative-log EC50 (pEC50) in data set [1] (setting [4]) is 8.54.
As to `CC(=O)Nc1ccc(-c2nc(SCc3cccc(CCC(=O)N4CCN(CC5CCN(CCF)CC5)CC4)n3)nc(N)c2C#N)cc1` [Example 4, N-(4-(6-amino-5-cyano-2-((6-(3-(4-((1-(2-fluoroethyl)-piperidin-4-yl)methyl)piperazin-1-yl)-3-oxopropyl)pyridin-2-yl)methylthio)pyrimidin-4-yl)phenyl)acetamide], in data set [1], the pEC50 is 8.21.
Turning to `CC(=O)Nc1ccc(-c2nc(SCc3cccc(CCC(=O)N4CCN(CC5CCN(CCCO)CC5)CC4)n3)nc(N)c2C#N)cc1` [Example 3, N-(4-(6-amino-5-cyano-2-((6-(3-(4-((1-(3-hydroxy-propyl)piperidin-4-yl)methyl)piperazin-1-yl)-3-oxopropyl)-pyridin-2-yl)methylthio)pyrimidin-4-yl)phenyl)acetamide], in data set [1] (setting [4]), the negative logarithm of the EC50 (pEC50) was 8.74.
On the same count and under the same terms, as for `COC(=O)CCN1CCC(CN2CCN(C(=O)CCc3cccc(CSc4nc(N)c(C#N)c(-c5ccc(NC(C)=O)cc5)n4)n3)CC2)CC1` [Example 5, N-(4-(6-amino-5-cyano-2-((6-(3-(4-((1-(2-methoxy-carbonylethyl)piperidin-4-yl)methyl)piperazin-1-yl)-3-oxopropyl)pyridin-2-yl)methylthio)pyrimidin-4-yl)phenyl)-acetamide], the figure is 8.08.
A word on the cell viability: it is a read-out of living cells in per cent, often relative to untreated cells. Consider `CC(=O)Nc1ccc(-c2nc(SCc3cccc(CCC(=O)N4CCN(CC5CCNCC5)CC4)n3)nc(N)c2C#N)cc1` [Example 1, N-(4-(6-amino-5-cyano-2-((6-(3-oxo-3-(4-(piperidin-4-yl-methyl)piperazin-1-yl)propyl)pyridin-2-yl)methylthio)-pyrimidin-4-yl)phenyl)acetamide trihydrochloride], for which the pEC50 in data set [1] (setting [4]) is 8.48; with ciliary artery (Oryctolagus cuniculus, rabbit ciliary artery rings, High K+ contraction) it was 4.77. Besides, the cell viability was found to be 106.3% in data set [2] (0.25 mM), 115.0% in data set [2] (0.5 mM) and 100.7% in data set [2] (1 mM). In addition, the “Relaxation (%)” value with ciliary artery (0.3 μM) was found to be 2.6 ± 0.5%; in the data set with ciliary artery (1 μM), 4.8 ± 1.2%; in the data set with ciliary artery (3 μM), 7.9 ± 2.3%; in the data set on ciliary artery (10 μM), 35.3 ± 14.4%; with ciliary artery (30 μM), 65.6 ± 9.5%; in the data set on ciliary artery (100 μM), 82.4 ± 3.7%. The “Relaxation (%)” value in the data set on ciliary artery (300 μM) turned out to be 90.1 ± 2.4%. For the same compound, the “Cell survival (%)” value was determined as 10.9 ± 7.0% in data set [3] (3 nM), 46.5 ± 7.0% in data set [3] (10 nM) and 41.9 ± 5.5% in data set [3] (30 nM).
